Measurements reported in ChEMBL document CHEMBL4706616, “Design, synthesis, and evaluation of substituted 2-acylamide-1,3-benzo[d]zole analogues as agents against MDR- and XDR-MTB” (Eur J Med Chem, 2021).
Values after ≈ are worked out from the molar mass of the structure shown.

Tests used:
[1] = system: Mycobacterium tuberculosis; test: Antitubercular activity against isoniazid/rifampicin multidrug-resistant Mycobacterium tuberculosis FJ05120 clinical isolates assessed as bacterial growth inhibition by MABA; format: functional
[2] = system: Mycobacterium tuberculosis; test: Antitubercular activity against isoniazid/rifampicin/streptomycin/capreomycin/ofloxacin extensively drug-resistant Mycobacterium tuberculosis FJ05195 clinical isolates assessed as bacterial growth inhibition by MABA; format: functional

Compound	MIC [1] [µM]	MIC [2] [µM]
Cc1nnsc1C(=O)Nc1nc2c(-c3ccccn3)cccc2o1	23.7 (≈ 8 µg/mL)	47.4 (≈ 16 µg/mL)
Cc1nnsc1C(=O)Nc1nc2c(ccc3cccnc32)o1	6.42 (≈ 2 µg/mL)	25.7 (≈ 8 µg/mL)
Cc1nnsc1C(=O)Nc1nc2ncccc2o1	3.83 (≈ 1 µg/mL)	7.66 (≈ 2 µg/mL)
O=C(Nc1nc2ccccc2o1)c1ccco1	70.1 (≈ 16 µg/mL)	35.1 (≈ 8 µg/mL)
Cc1nnsc1C(=O)Nc1nc2cc(Br)ccc2o1	1.47 (≈ 0.499 µg/mL)	1.47 (≈ 0.499 µg/mL)
COC(=O)c1ccc(-c2ccc3oc(NC(=O)c4snnc4C)nc3c2)cc1	0.63 (≈ 0.248 µg/mL)	0.63 (≈ 0.248 µg/mL)
Cc1nnsc1C(=O)Nc1nc2cc(N3CCOCC3)ccc2o1	23.2 (≈ 8 µg/mL)	23.2 (≈ 8 µg/mL)
Cc1nnsc1C(=O)Nc1nc2c(ccc3ccccc32)o1	103 (≈ 32 µg/mL)	103 (≈ 32 µg/mL)
Cc1nnsc1C(=O)Nc1nc2cc(F)ccc2o1	0.45 (≈ 0.125 µg/mL)	1.8 (≈ 0.501 µg/mL)
O=C(Nc1nc2ccccc2o1)c1cccs1	32.8 (≈ 8 µg/mL)	32.8 (≈ 8 µg/mL)
Cc1nnsc1C(=O)Nc1nc2cc(-c3ccccn3)ccc2o1	0.37 (≈ 0.125 µg/mL)	0.37 (≈ 0.125 µg/mL)
Cc1nnsc1C(=O)Nc1nc2ccccc2s1	57.9 (≈ 16 µg/mL)	57.9 (≈ 16 µg/mL)
Cc1nnsc1C(=O)Nc1nc2c(Oc3ncccn3)cccc2o1	5.64 (≈ 2 µg/mL)	2.82 (≈ 0.999 µg/mL)
O=C(Nc1nc2ccccc2o1)c1ccc(Cl)s1	14.3 (≈ 4 µg/mL)	14.3 (≈ 4 µg/mL)
Cc1nnsc1C(=O)Nc1nc2cc(C(C)(C)C)ccc2o1	0.4 (≈ 0.127 µg/mL)	0.4 (≈ 0.127 µg/mL)
CO[C@H]1/C=C/O[C@@]2(C)Oc3c(C)c(O)c4c(O)c(c(/C=N/N5CCN(C)CC5)c(O)c4c3C2=O)NC(=O)/C(C)=C\C=C\[C@H](C)[C@H](O)[C@@H](C)[C@@H](O)[C@@H](C)[C@H](OC(C)=O)[C@@H]1C [RIFAMPIN]	> 311	> 311
Cc1nnsc1C(=O)Nc1nc2cc(-c3cccnc3)ccc2o1	1.48 (≈ 0.499 µg/mL)	2.96 (≈ 0.999 µg/mL)

Compound	MIC [1] [µM]	MIC [2] [µM]
Cc1nnsc1C(=O)Nc1nc2ccc(Cl)cc2o1	0.42 (≈ 0.124 µg/mL)	0.85 (≈ 0.251 µg/mL)
Cc1nnsc1C(=O)Nc1nc2c(ccc3ncccc32)o1	25.7 (≈ 8 µg/mL)	25.7 (≈ 8 µg/mL)
Cc1nnsc1C(=O)Nc1nc2c(OCc3ccccn3)cccc2o1	2.72 (≈ 0.999 µg/mL)	5.44 (≈ 2 µg/mL)
Cc1nnsc1C(=O)Nc1nc2ccccc2[nH]1	30.9 (≈ 8 µg/mL)	30.9 (≈ 8 µg/mL)
CC[C@@H](CO)NCCN[C@@H](CC)CO [ETHAMBUTOL]	4.89 (≈ 0.999 µg/mL)	39.2 (≈ 8 µg/mL)
Cc1nnsc1C(=O)Nc1nc2ccccc2o1	0.48 (≈ 0.125 µg/mL)	0.48 (≈ 0.125 µg/mL)
Cc1nnsc1C(=O)Nc1nc2cc(Cl)ccc2o1	1.7 (≈ 0.501 µg/mL)	1.7 (≈ 0.501 µg/mL)
Cc1ccc2oc(NC(=O)c3snnc3C)nc2c1	7.29 (≈ 2 µg/mL)	7.29 (≈ 2 µg/mL)
NNC(=O)c1ccncc1 [ISONIAZID]	7.29 (≈ 1 µg/mL)	29.2 (≈ 4 µg/mL)
O=C(Nc1nc2ccccc2o1)c1ccccc1	537 (≈ 128 µg/mL)	537 (≈ 128 µg/mL)
CN[C@@H]1[C@H](O[C@H]2[C@H](O[C@H]3[C@H](O)[C@@H](O)[C@H](N=C(N)N)[C@@H](O)[C@@H]3N=C(N)N)O[C@@H](C)[C@]2(O)C=O)O[C@@H](CO)[C@H](O)[C@H]1O [STREPTOMYCIN]	< 0.69	87.8 (≈ 51.1 µg/mL)
Cc1nnsc1C(=O)Nc1nc2c(Br)cccc2o1	0.74 (≈ 0.251 µg/mL)	0.74 (≈ 0.251 µg/mL)
Cc1nnsc1C(=O)Nc1nc2ccc(C(C)(C)C)cc2o1	6.32 (≈ 2 µg/mL)	6.32 (≈ 2 µg/mL)
COC(=O)c1ccc2oc(NC(=O)c3snnc3C)nc2c1	1.57 (≈ 0.5 µg/mL)	3.14 (≈ 1 µg/mL)
Cc1nnsc1C(=O)Nc1nc2cc(-c3cnn(C)c3)ccc2o1	0.73 (≈ 0.248 µg/mL)	1.47 (≈ 0.5 µg/mL)
Cc1nnsc1C(=O)Nc1nc2cc(-c3ccncc3)ccc2o1	0.74 (≈ 0.25 µg/mL)	1.48 (≈ 0.499 µg/mL)
